Experimental data taken from ChEMBL document CHEMBL4706677, “Design, synthesis, and biological evaluation of 1,3,6,7-tetrahydroxyxanthone derivatives as phosphoglycerate mutase 1 inhibitors” (Bioorg Med Chem Lett, 2021).

Columns and labels:
[1] = target: Phosphoglycerate mutase 1 (Homo sapiens, UniProt P18669); test: Inhibition of PGAM1 (unknown origin)
NCI-H1299 = test: Antiproliferative activity against human NCI-H1299 cells assessed as inhibition of cell proliferation; assay type: functional, cell-based

Sequence of Phosphoglycerate mutase 1 (P18669 whole entry): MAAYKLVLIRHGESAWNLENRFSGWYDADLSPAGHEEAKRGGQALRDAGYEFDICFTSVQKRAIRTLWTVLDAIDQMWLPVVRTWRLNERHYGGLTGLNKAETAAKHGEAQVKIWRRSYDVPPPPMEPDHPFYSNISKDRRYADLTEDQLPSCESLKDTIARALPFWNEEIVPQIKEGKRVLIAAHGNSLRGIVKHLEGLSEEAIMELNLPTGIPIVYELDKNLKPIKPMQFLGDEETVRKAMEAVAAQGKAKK

| Compound | IC50 [1] [µM] | EC50 (NCI-H1299) [µM] |
| --- | --- | --- |
| CC(C)=CCc1c(O)cc2oc3cc(O)c(O)c(CC=C(C)C)c3c(=O)c2c1O | 1.9 | 2.2 |
| O=C1c2ccccc2C(=O)c2c1cc(S(=O)(=O)Nc1ccc(C(F)(F)F)cc1)c(O)c2O |  | 26.2 |
| O=c1c2cc(O)c(O)cc2oc2cc(O)cc(OCCCCN3CCCCC3)c12 | > 20 |  |
| CCCCC=CCc1c(O)c(O)cc2oc3cc(O)cc(O)c3c(=O)c12 | 2.8 | 13.5 |
| COc1c(OCCN2CCN(C)CC2)cc2oc3cc(OCCN4CCN(C)CC4)c(CC=C(C)C)c(O)c3c(=O)c2c1CC=C(C)C | > 20 |  |
| CCNC(=O)Oc1cc2oc3cc(OC(=O)NCC)c(OC)c(CC=C(C)C)c3c(=O)c2c(O)c1CC=C(C)C | > 20 |  |
| COc1c(OC(=O)NC(C)C)cc2oc3cc(OC(=O)NC(C)C)c(CC=C(C)C)c(O)c3c(=O)c2c1CC=C(C)C | > 20 |  |
| COc1c(OCCN(C)C)cc2oc3cc(OCCN(C)C)c(CC=C(C)C)c(O)c3c(=O)c2c1CC=C(C)C | > 20 |  |
| O=C(CCCOc1cc(O)cc2oc3cc(O)c(O)cc3c(=O)c12)N1CCCCC1 | > 20 |  |
| CCCCCCCCOc1cc(O)cc2oc3cc(O)c(O)cc3c(=O)c12 | 2.8 | 3.4 |
| O=c1c2c(O)cc(O)cc2oc2cc(O)c(O)c(CCCc3ccccc3)c12 | 1.5 | 41.6 |
| COc1c(OCCO)cc2oc3cc(OCCO)c(CC=C(C)C)c(O)c3c(=O)c2c1CC=C(C)C | > 20 |  |
| COc1cc(O)c2c(=O)c3c(CCCc4ccccc4)c(O)c(OC)cc3oc2c1 | > 20 |  |
| CCCCOc1cc(O)cc2oc3cc(O)c(O)cc3c(=O)c12 | 12.8 | 60 |
| CCCc1c(O)c(O)cc2oc3cc(O)cc(O)c3c(=O)c12 | 20 |  |
| O=c1c2cc(O)c(O)cc2oc2cc(O)cc(OCCCCN3CCc4ccccc43)c12 | 5.7 | 28.1 |
| COc1c(OCC(=O)N(C)C)cc2oc3cc(OCC(=O)N(C)C)c(CC=C(C)C)c(O)c3c(=O)c2c1CC=C(C)C | > 20 |  |
| CC(C)=CCc1c(O)c(O)cc2oc3cc(O)cc(O)c3c(=O)c12 | 3.4 | 47.7 |
| COc1c(O)cc2oc3cc(O)c(CC=C(C)C)c(O)c3c(=O)c2c1CC=C(C)C [MANGOSTIN] | 7.2 |  |
| O=c1c2ccccc2oc2ccccc12 [XANTHONE] | 0.5 |  |
